The record followed here is patent US20230320967A1, “COMPOSITION, USE OF THE COMPOSITION, COSMETIC METHOD FOR MODULATING THE PRODUCTION OF SEBUM” (CHEMYUNION LTDA., priority 2020, published 2023).

The structures appear in SMILES notation. Peptide text beside a SMILES is read from it.

Data set [1] has as its system SEBO662AR cell model. As to the kind of experiment: Sebum production inhibition in SEBO662AR sebocyte model, androgen-free lipogenic medium, Bodipy lipid droplet imaging. The format is cell-based, human. As to conditions: 500 micromolar, comparable to cerulenin 10 micromolar. The method, then:
Sebocytes are cells found in the sebaceous glands and that, in the differentiation process, accumulate lipid droplets in their interior. The SEBO662AR cell model is an immortalized lineage of human sebocytes that responds to lipogenic stimuli and that can be used to select potential sebum production inhibitors.
A sebum production inhibition study was conducted in the SEBO662AR cell model cultivated in androgen-free lipogenic medium, and the formation of droplets was monitored by using Bodipy® fluorescent probes and image analysis. As an inhibition reference, cerulenin was applied at a concentration of 10 micromolar—a fatty acid synthase inhibitor which, although effective in reducing sebum production, is a very labile molecule as it has unsaturations and an epoxy group in its structure, so that its use is restricted to laboratory testing.

The subject of data set [2] is SEBO662AR cell model. As to the kind of experiment: Cytotoxicity in vitro (non-cytotoxic concentration). The format is cell-based, human. To be noted: SEBO662AR study.
Data set [3] concerns skin oiliness (sebum) of female volunteers with mixed or oily skin. In words: Clinical testing: face oiliness by sebum-metric index, Sebumeter SM 815. It counts as in vivo, human. As to conditions: 0.01% w/w in cosmetic base (BC-tripeptide), twice a day, 20 female volunteers. On the procedure: For the clinical efficacy evaluation, the tripeptide (Glu-Val-Phe) was applied in a cosmetic base (BC) at a concentration of 0.01% (w/w) and compared to a placebo base, without active (Table 2).
The study was conducted with 20 female volunteers, between 18 and 50 years old, with mixed or oily skin, oily skin with a sebum-metric index above 100, who used the product (BC-placebo or BC-tripeptide) twice a day (morning and evening) for 28 days.
The participants were referred to the Instrumental Sector for acclimatizing for at least 20 minutes, in a room with controlled temperature and humidity (T=20±2° C. and RH=50±5%). After the acclimatizing period, sebum-metrics measurements were performed on the forehead. […]
The Sebumeter photometrically measures the increase in transparency of a special plastic strip that becomes translucent when coated with sebum. […] The strip is supported by a mirror which presses it against the skin of the region to be evaluated with a fixed pressure of 10N by means of a spring. […] The strip transparency is evaluated by a photocell present in the device where the plastic strip is inserted, and the light transmission represents the amount of sebum per area and the results are expressed in absolute values (μg sebum/cm^2). […]

In the case of `CC(C)[C@H](NC(=O)[C@@H](N)CCC(=O)O)C(=O)N[C@@H](Cc1ccccc1)C(=O)O` [SEQ ID No. 1, H-Glu-Val-Phe-OH] (H-Glu-Val-Phe-OH), the “reduction in sebum production” value in data set [1] was found to be 28%. The same compound yielded a higher non-cytotoxic concentration in data set [2] of 500 µM. In addition, the “decrease of the average of the sebum-metric indices vs initial time (D0)” value in data set [3] (after 14 days) is reported as 31.54%. For the same compound, the “reduction of average oiliness vs initial time (D0)” value in data set [3] (after 28 days) came to 29.75%.
